In patent US20090023637A1, “Methods for detecting and treating interstitial cystitis” (priority 2006, published 2009):

Legend:
[1] = tested on: human bladder cells (HTB4); assay: Cytotoxicity assay, unmodified versus desialylated THP, Example 2
Description: The TF obtained from 2 different pooled urine samples (TF1, TF2) was tested for cytotoxicity using the CellTiter96 Aqueous One Solution Proliferation Assay™ (Promega Corp, Madison, Wis.). Rat urothelial target cells and human HTB4 urothelial cells were plated in 96-well tissue culture plates (Nunclon™) in triplicate (50,000 cells/well). Cells had been maintained in Ham's-M199 tissue culture media supplemented with 10% fetal calf serum (FCS)+antibiotics (Pen-Strep).
For cytotoxicity assay, cells were harvested from seed flasks, washed free of trypsin-EDTA, and resuspended in DME media (without phenol red indicator) −1% FCS (assay media). An aliquot of the cell suspension was counted in a hemocytometer and diluted with assay media to a concentration of 0.5×10^6 cells/ml, from which 100 μl (5×10^4 cells) were added to each well in a 96-well microtiter plate. […] Dose response data was determined beforehand for the TF preparations. […]
After overnight incubation at 37° C., the target cells were washed twice with DME alone (200 μl/well) and fresh DME added to each well (90 μl). Then a tetrazolium compound (MTS-Owen's Reagent) combined with an electron coupling reagent (PES) was added (10 μl/well) per kit protocol and absorbance measured in a plate reader after 30 min incubation at 490 nm and at 630 nm after blanking the plate to DME media containing the tetrazolium compound. […]

[2] = THP zeta potential (mV) measurements; format: physicochemical; conditions: 0.01M NaCl buffer, pH 7.0 at 25° C.; n=6 in each group
Description: Surface charge properties (zeta potential) are measured for THP samples from patients (n=6) and controls (n=6). THP (Biomedical Technologies, Inc.) and fetuin and asialofetuin (Sigma Chemical Co.) standards (50 μg) are similarly measured. Zeta potential and size measurements are made with a Zetasizer Nano ZS instrument and a CGS-3 Goniometer system (Malvern Instruments Inc., Southborough, Mass.) with ancillary software version 4.0. All zeta potential measurements are conducted on rehydrated samples in 0.01M NaCl buffer, pH 7.0 at 25° C., after centrifugation followed by filtration ([…]) to remove any aggregates. Measurements are made in triplicate and the results analyzed by Student's t test for significance.

[3] = tested on: rat bladder; assay: Evaluation of bladder overactivity in rodents (urodynamics), Example 2; format: in vivo, Sprague-Dawley rats; conditions: intravesical infusion; TF 15 mg/mL alone or mixed 1:1 with unmodified THP or THP-d 10 mg/ml, followed by 400 mM KCl for 30 min
Description: After a few days of acclimatization, adult male SD rats underwent urodynamics evaluation of bladder hyperactivity before and after intravesical infusion of a test substance^8 (TF or TF plus unmodified THP or TF plus THP-d) followed by intravesical KCl. The procedure for the in vivo rat study was performed as described previously.^23
After baseline measurements of pressure threshold, peak pressure, frequency of contractions, inter-contractile interval, and percentage of nonvoiding contractions (NVC) were recorded as previously described,^23 rats were infused with the test solution. One group of animals received an infusion of TF (15 mg/mL). To test the effect of desialylation on the ability of THP to attenuate the bladder hyperactivity induced by TF and KCl, second and third groups of animals received an infusion of a mixture of unmodified THP or THP-d 10 mg/ml and TF (15 mg/ml) mixed in a ratio of 1:1.
Infusion of the test solution was followed by infusion of 400 mM KCl for 30 min^8 and urodynamics measurements were repeated.

[4] = tested on: rat bladder; assay: Evaluation of bladder overactivity in rodents (urodynamics, KCl infusion after test substance), Example 1; format: in vivo, Sprague-Dawley rats; conditions: intravesical infusion; TF 15 mg/mL or THP 10 mg/ml + TF 15 mg/ml 1:1, followed by 400 mM KCl for 30 minutes
Description: (§1) After a few days of acclimatization, two groups (n=9 each) of adult male Sprague-Dawley rats (325-350 g) underwent urodynamics evaluation of bladder hyperactivity before and after intravesical infusion of a test substance (TF or TF plus THP) followed by intravesical KCl.^8 The procedure was as follows.
The rats were anesthetized with a subcutaneous injection of urethane (1.2 g/Kg) and a 1 cm incision was made along the centerline of the lower ventral abdomen. Once the bladder was exteriorized, a 22 gauge (0.7 mm) catheter (Intracath, Becton-Dickinson, OH) was inserted into the bladder dome and sutured in place using a purse string suture with 4.0 tapered prolene suture. The bladder was returned to the abdomen, with the line escaping through the incision. […] During the continuous filling bladder cystometry, the pressure was recorded with the transducer using the program LabView (National Instruments, TX).
To induce hyperactivity, the bladder was first infused with warm (37° C.) 0.9% saline or 400 mM KCl (29.8 mg/mL, Abbott Laboratories, IL) at 40 μL/min (2.4 mL/hr) and at least 20 minutes of stable voiding cycles were recorded during infusion. The pressure threshold (PT, pressure at which voiding initializes) and peak pressure (PP, pressure maximum or amplitude of bladder contractions) were recorded. […]

[5] = tested on: rat bladder; assay: Evaluation of bladder overactivity in rodents (urodynamics), Example 4; format: in vivo, Sprague-Dawley rats; conditions: intravesical infusion; PS 30 mg/mL, toxic factor 15 mg/mL, or PPS 10 mg/ml + toxic factor 15 mg/ml, followed by 400 mM KCl for 30 minutes
Description: as §1, with “three” for “two”, “(PS, urinary toxic factor,” for “(TF”, “toxic factor” for “TF”, “PPS)” for “THP)”, “KCl.^4” for “KCl.^8 The procedure was as follows.”
The procedure was as follows: The rats were anesthetized with a subcutaneous injection of urethane (1.2 g/Kg) and a 1 cm incision made along the centerline of the lower ventral abdomen. […] During the continuous filling bladder cystometry, the pressure was recorded with the transducer using the program LabView (National Instruments, TX).
To induce hyperactivity, the bladder was first infused with warm 0.9% saline (37° C.) at 40 μL/min (2.4 mL/hr) and at least 20 minutes of stable voiding cycles recorded during infusion. The pressure threshold (PT, pressure at which voiding initializes) and peak pressure (PP, pressure maximum or amplitude of bladder contractions) were recorded. Frequency of contractions and inter-contractile interval (ICI) were recorded, along with the percentage of non-voiding contractions (% NVC, contractions where the PP is greater than 2 cm H2O and less than the TP, thus not resulting in a void). […]

THP-d: THP desialylated by mild acid hydrolysis in 2.5M acetic acid, 3 hr at 82° C.
Average cytotoxicity (%) ([1]; HTB4 cells 5 × 10^4/well, THP or THP-d mixed with TF 60 min, overnight incubation, relative to media controls): 13.4%

control THP: THP isolated from urine of healthy control subjects
zeta potential [2]: −28.0±2.4 mV

[Cl-].[K+] [KCl]
NVC/minute (nonvoiding contractions) [3]: 0.25 ± 0.064 NVC/minute | NVC/minute (nonvoiding contractions) [4]: 0.25 ± 0.064 NVC/minute | NVC/minute (nonvoiding contractions) [5]: 0.25 ± 0.064 NVC/minute

protamine sulfate
NVC/minute (nonvoiding contractions) [5]: 1.733 ± 0.55 NVC/minute | Cytotoxicity LD50 ([1]; footnote to Table 3, known cytotoxic agent): †Cytotoxicity of protamine sulfate, a known cytotoxic agent: LD50 = ~20 μg
